Active and inactive are the calls of the source. The calls are words filed in the database; no cut-off is given here.
Legend:
[1] = test system: Influenza A virus; test: Antiviral activity against influenza A virus by plaque inhibition assay; format: functional, organism-based
[2] = test system: Plasmodium falciparum; test: Antimalarial activity against Plasmodium falciparum 3D7 MRA-102, MR4/ATCC infected in human erythrocytes assessed as inhibition of parasite proliferation after 72 hrs by SYBR green assay; format: functional, organism-based
[3] = test system: Staphylococcus aureus; test: Antibacterial activity against methicillin-resistant Staphylococcus aureus; format: functional, organism-based
[4] = test system: HCT-116; test: Cytotoxicity against human HCT116 cells; format: functional, cell-based

Structure (SMILES): CC(C)=CCC/C(C)=C/COC[C@H]1O[C@@H](N2CCC(=O)NC2=O)[C@H](O)[C@@H]1O
- Activity [1]: Active

Structure (SMILES): CC(C)=CCC[C@@]1(C)O[C@@H]1CC/C(C)=C/COC[C@H]1O[C@@H](N2CCC(=O)NC2=O)[C@H](O)[C@@H]1O
- IC50 [2]: 69.3 µM
- Activity [1]: inactive
- Activity [3]: inactive
- Activity [4]: inactive

Structure (SMILES): CC(C)=CCC[C@@](C)(O)[C@@H](O)CC/C(C)=C/COC[C@H]1O[C@@H](N2CCC(=O)NC2=O)[C@H](O)[C@@H]1O
- Activity [1]: inactive
- Activity [3]: inactive
- Activity [4]: inactive
